What all share (format): in vivo
The subject of assay [1] is Ipomea hederaceae (IPOHE). As to the kind of experiment: Pre-emergence biological efficacy, glasshouse pot test. Conditions: Ipomoea hederacea, 312 h; pre-emergence, 1,000 g/ha, evaluated after 13 days (100=total damage; 0=no damage); read-out: Percentage damage IPOHE. An outline of the steps: (§1)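 Visual phytotoxicity (0 no damage, 100 total damage) assessed 13 d after treatment. Soil-sown pots sprayed one day post-sowing; dose 1000 or 250 g/ha; formulation in acetone/water 50:50, 0.5% Tween 20.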

For assay [2], the system named is Echinochloa crus-galli (ECHCG). Described as above. Conditions: 312 h, pre-emergence, 1,000 g/ha, evaluated after 13 days (100=total damage; 0=no damage), read-out: Percentage damage ECHCG. An outline of the steps:
as §1

Assay [3] concerns Alopecurus myosuroides (ALOMY). The assay is described as above. Conditions: 312 h, pre-emergence, 1,000 g/ha, evaluated after 13 days (100=total damage; 0=no damage), read-out: Percentage damage ALOMY. The method, boiled down: as §1
In assay [4] the test system is Solanum nigrum (SOLNI). Described as above. Conditions: 312 h, pre-emergence, 1,000 g/ha, evaluated after 13 days (100=total damage; 0=no damage), read-out: Percentage damage SOLNI. An outline of the steps:
as §1

The test system of assay [5] is Amaranthus retoflexus (AMARE). Described as above. To be noted: Amaranthus retroflexus, 312 h; pre-emergence, 1,000 g/ha, evaluated after 13 days (100=total damage; 0=no damage); read-out: Percentage damage AMARE. An outline of the steps:
as §1

The subject of assay [6] is Setaria faberi (SETFA). The description is as above. Conditions: 312 h, pre-emergence, 1,000 g/ha, evaluated after 13 days (100=total damage; 0=no damage), read-out: Percentage damage SETFA. The method, boiled down: as §1
Assay [7] deals with Ipomea hederaceae (IPOHE). Briefly: Post-emergence biological efficacy, glasshouse pot test. Conditions: Ipomoea hederacea, 312 h; post-emergence, 1,000 g/ha, evaluated after 13 days (100=total damage; 0=no damage); read-out: Percentage damage caused to weed species, IPOHE. An outline of the steps:
(§2)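 Pot-grown weeds were sprayed 8 days after sowing with test compound in acetone/water (50:50) with 0.5% Tween 20 at 1000 or 250 g/ha. Glasshouse at 24/16° C day/night, 14 h light, 65% humidity. Damage scored 0-100 (100 = total damage) after 13 days.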

The subject of assay [8] is Echinochloa crus-galli (ECHCG). The assay is described as above. To be noted: 312 h, post-emergence, 1,000 g/ha, evaluated after 13 days (100=total damage; 0=no damage), read-out: Percentage damage caused to weed species, ECHCG. An outline of the steps:
as §2

Assay [9] deals with Alopecurus myosuroides (ALOMY). The description is as above. To be noted: 312 h, post-emergence, 1,000 g/ha, evaluated after 13 days (100=total damage; 0=no damage), read-out: Percentage damage caused to weed species, ALOMY. An outline of the steps: as §2
Assay [10] concerns Solanum nigrum (SOLNI). Described as above. To be noted: 312 h, post-emergence, 1,000 g/ha, evaluated after 13 days (100=total damage; 0=no damage), read-out: Percentage damage caused to weed species, SOLNI. The method, boiled down:
as §2

The test system of assay [11] is Amaranthus retoflexus (AMARE). The assay is described as above. Conditions: Amaranthus retroflexus, 312 h; post-emergence, 1,000 g/ha, evaluated after 13 days (100=total damage; 0=no damage); read-out: Percentage damage caused to weed species, AMARE. An outline of the steps: as §2
Assay [12] concerns Setaria faberi (SETFA). Described as above. To be noted: 312 h, post-emergence, 1,000 g/ha, evaluated after 13 days (100=total damage; 0=no damage), read-out: Percentage damage caused to weed species, SETFA. The method, boiled down: as §2

With `COC(=O)c1nc(C2CC2)nc(NC2(/C=C/c3ccc(Cl)cc3Cl)CC2)c1Cl` [Compound 4-28, 5-Chloro-2-cyclopropyl-4-{1-[2-(2,4-dichloro-phenyl)ethenyl]-cyclopropyl-amino}-6-methoxy-carbonylpyrimidine], the pest or weed control at 1000 g/ha came to 70% in assay [1]; 0% in [2]; 10% in assay [3]; 40% in [4]; 90% in [5]; 10% in assay [6]. In addition, the pest or weed control at 1000 g/ha came to 100% in [7]; 30% in [8]; 10% in assay [9]; 80% in [10]; 100% in [11]; 50% in assay [12].

On to `COC(=O)c1nc(C2CC2)nc(NC2(/C=C/c3cccc(Cl)c3Cl)CC2)c1Cl` [Compound 4-29, 5-Chloro-2-cyclopropyl-4-{1-[2-(2,3-dichloro-phenyl)ethenyl]-cyclopropylamino}-6-methoxycarbonyl-pyrimidine], for which the pest or weed control at 1000 g/ha in [1] worked out at 70%; in [2], 0%; in [3] it was 10%; in assay [4], 30%; in assay [5], 30%; in assay [6] it was 10%. Besides, the pest or weed control at 1000 g/ha is 100% in [7]; 30% in [8]; 10% in [9]; 100% in assay [10]; 90% in assay [11]; 60% in assay [12].

Take `COC(=O)c1nc(C2CC2)nc(NC2(/C=C/c3cccc(Cl)c3)CC2)c1Cl` [Compound 4-30, 5-Chloro-4-{1-[2-(3-chlorophenyl)-etenyl]-cyclopropylamino}-2-cyclopropyl-6-methoxycarbonyl-pyrimidine]: the pest or weed control at 1000 g/ha in assay [1] is 40%; in assay [2], 0%; in [3], 0%; in assay [4], 0%; in [5] it was 20%; in assay [6], 10%. Further, the pest or weed control at 1000 g/ha in assay [7] came out at 100%; in assay [8] it was 30%; in [9], 10%; in [10], 70%; in assay [11], 100%; in [12], 60%.

Take `COC(=O)c1nc(C2CC2)nc(NC2(/C=C/c3ccc(F)cc3F)CC2)c1Cl` [Compound 4-31, 5-Chloro-2-cyclopropyl-4-{1-[2-(2,4-difluoro-phenyl)-ethenyl]-cyclopropylamino}-6-methoxy-carbonylpyrimidine]: the pest or weed control at 1000 g/ha in assay [1] is 70%; in [2], 0%; in assay [3], 0%; in assay [4] it was 20%; in [5] it was 80%; in [6] it was 0%. Moreover, the pest or weed control at 1000 g/ha in assay [7] was 80%; in assay [8] it was 30%; in assay [9] it was 10%; in assay [10] it was 90%; in assay [11] it was 100%; in [12], 80%.

`COC(=O)c1nc(C2CC2)nc(NC2CCC2)c1Cl` [Compound 4-32, 5-Chloro-4-cyclobutylamino-2-cyclopropyl-6-methoxycarbonyl-pyrimidine]: the pest or weed control at 1000 g/ha worked out at 80% in [1]; 50% in assay [2]; 50% in assay [3]; 80% in assay [4]; 80% in assay [5]; 80% in assay [6]. The pest or weed control at 1000 g/ha in [7] was 100%; in assay [8] it was 70%; in assay [9] it was 50%; in assay [10] it was 90%; in assay [11], 100%; in [12] it was 90%.

For the molecule `COC(=O)c1nc(C2CC2)nc(NC2CCCC2)c1Cl` [Compound 4-33, 5-Chloro-4-cyclopentylamino-2-cyclopropyl-6-methoxycarbonyl-pyrimidine], the pest or weed control at 1000 g/ha in assay [1] amounted to 50%; in assay [2], 20%; in assay [3], 0%; in assay [4], 20%; in [5], 50%; in assay [6], 10%. The pest or weed control at 1000 g/ha amounted to 70% in assay [7]; 60% in [8]; 30% in assay [9]; 70% in assay [10]; 80% in assay [11]; 70% in assay [12].

For the molecule `COC(=O)c1nc(C2CC2)nc(NC2CCCC2O)c1Cl` (stereo not drawn) [Compound 4-34, 5-Chloro-2-cyclopropyl-4-(2-hydroxycyclopentylamino)-6-methoxycarbonyl-pyrimidine], the pest or weed control at 1000 g/ha was determined as 90% in assay [1]; 20% in assay [2]; 30% in assay [3]; 80% in assay [4]; 100% in [5]; 50% in assay [6]. In addition, the pest or weed control at 1000 g/ha is 60% in assay [7]; 60% in assay [8]; 20% in assay [9]; 80% in assay [10]; 100% in assay [11]; 60% in assay [12].

As to `COC(=O)c1nc(C2CC2)nc(NC2CCCCC2)c1Cl` [Compound 4-35, 5-Chloro-4-cyclohexylamino-2-cyclopropyl-6-methoxycarbonyl-pyrimidine], the pest or weed control at 1000 g/ha in assay [1], in assay [2], in assay [3], in assay [4], in [5] and in assay [6] was 0% each time. The pest or weed control at 1000 g/ha was 60% in assay [7]; 0% in assay [8]; 30% in [9]; 40% in assay [10]; 30% in [11]; 20% in [12].

As to `COC(=O)c1nc(C2CC2)nc(Nc2ccccc2)c1Cl` [Compound 4-39, 5-Chloro-2-cyclopropyl-6-methoxycarbonyl-4-phenylamino-pyrimidine], the pest or weed control at 1000 g/ha is 80% in assay [1]; 20% in assay [2]; 0% in [3]; 50% in assay [4]; 60% in [5]; 0% in assay [6]. In addition, the pest or weed control at 1000 g/ha in assay [7] worked out at 70%; in [8] it was 70%; in assay [9], 50%; in [10], 80%; in assay [11], 100%; in [12] it was 60%.

(Values after patent US20110086759A1, “CHEMICAL COMPOUNDS” (SYNGENTA CROP PROTECTION, INC., priority 2007, published 2011).)
